The values below come from US20020151581A1, “Glucose and lipid lowering compounds” (priority 1998, published 2002).

Data set [1] concerns the target T1, hormone-sensitive lipase derived from a preparation of 3T3-cell lysate (Mus musculus, UniProt P54310).
T1 construct: hormone-sensitive lipase derived from a preparation of 3T3-cell lysate; endogenous in cells; host or cells: 3T3-L1 cell lysate
T1 sequence (P54310 1-759): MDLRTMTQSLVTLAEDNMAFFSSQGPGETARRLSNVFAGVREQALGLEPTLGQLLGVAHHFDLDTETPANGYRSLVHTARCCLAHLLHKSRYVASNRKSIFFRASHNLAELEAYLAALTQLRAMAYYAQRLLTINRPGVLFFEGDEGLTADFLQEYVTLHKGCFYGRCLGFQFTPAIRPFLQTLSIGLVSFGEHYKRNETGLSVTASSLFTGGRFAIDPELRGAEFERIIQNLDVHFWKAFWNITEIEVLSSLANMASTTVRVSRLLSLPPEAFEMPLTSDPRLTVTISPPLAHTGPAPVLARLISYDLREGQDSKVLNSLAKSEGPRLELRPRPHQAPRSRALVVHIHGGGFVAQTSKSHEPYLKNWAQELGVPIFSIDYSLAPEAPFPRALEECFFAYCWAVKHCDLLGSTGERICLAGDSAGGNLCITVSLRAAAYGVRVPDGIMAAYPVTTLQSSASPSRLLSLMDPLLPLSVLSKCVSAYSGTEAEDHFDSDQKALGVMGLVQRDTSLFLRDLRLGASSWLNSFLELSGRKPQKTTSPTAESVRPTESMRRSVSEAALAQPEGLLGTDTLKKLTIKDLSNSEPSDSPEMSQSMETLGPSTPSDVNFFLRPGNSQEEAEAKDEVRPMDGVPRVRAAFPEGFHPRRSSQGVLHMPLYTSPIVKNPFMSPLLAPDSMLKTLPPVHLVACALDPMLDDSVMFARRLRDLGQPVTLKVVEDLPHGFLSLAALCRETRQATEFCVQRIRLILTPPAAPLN
The data set is described as follows: Inhibition of hormone-sensitive lipase from 3T3-L1 cell lysate on glycerol-stabilized triolein. The class given is biochemical. Conditions: test compound 100 μM. As for the experimental part:
Recombinant hormone-sensitive lipase protein isolated from a bacterial expression vector was pre-incubated with a compound of the invention (e.g., 100 μM) prior to the addition of substrate, emulsified triolein phosphatidylcholine/phosphatidylinositol (PC/PI), to initiate the reaction. At various time points, aliquots of the reaction were taken, and the level of glycerol used as an index of enzyme activity. Pharmacological specificity is determined by incubating test compound with other mammalian and non-mammalian lipase enzyme systems to assess inhibition of activity. The assay was conducted using triolein concentrations from 42 μM to 835 μM.
In a similar manner to that described in Example 4 above, 2α-benzoyloxy-4,5,7,8,11αH-eudesman-8,12-olide at 100 μM was evaluated for ability to activity of recombinant hormone-sensitive lipase and hormone-sensitive lipase derived from a preparation of 3T3-cell lysate on glycerol-stabilized triolein.

In a further data set the target is T2, hepatic lipase (Homo sapiens, UniProt P11150).
T2 sequence (P11150 23-499): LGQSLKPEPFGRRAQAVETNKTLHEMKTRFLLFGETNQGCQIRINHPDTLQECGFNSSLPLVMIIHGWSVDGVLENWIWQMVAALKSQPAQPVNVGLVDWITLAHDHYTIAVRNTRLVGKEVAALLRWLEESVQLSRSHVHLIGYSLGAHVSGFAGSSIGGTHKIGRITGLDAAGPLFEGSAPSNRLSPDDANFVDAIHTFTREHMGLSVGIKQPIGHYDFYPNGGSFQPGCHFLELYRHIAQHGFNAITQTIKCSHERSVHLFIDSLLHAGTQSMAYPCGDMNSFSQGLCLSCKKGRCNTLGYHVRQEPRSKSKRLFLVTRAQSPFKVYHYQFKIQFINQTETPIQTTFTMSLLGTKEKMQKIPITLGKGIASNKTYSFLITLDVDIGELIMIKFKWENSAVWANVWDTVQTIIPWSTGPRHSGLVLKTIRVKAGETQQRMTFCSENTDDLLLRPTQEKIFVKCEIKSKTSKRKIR
Kind of data set: Inhibition of hepatic lipase, glycerol stabilized triolein substrate. The class given is biochemical. Also on record: Pur. Hepatic Lipase + test compound (enzyme activity): unit not given beside the values. Conditions: test compound 100 μM.

As usually defined, the inhibition is the change of the read-out against control, counted positive when it falls. By melting point is commonly meant the temperature, or range, at which the solid turns liquid. `CC1C[C@H](OC(=O)c2ccccc2)C[C@]2(C)C[C@H]3OC(=O)[C@@H](C)[C@H]3CC12` (stereo partly drawn) [2α-benzoyloxy-4,5,7,8,11αH-eudesman-8,12-olide] registered a melting point of 181 to 183 °C. In data set [1] (triolein 30 μM), this compound registered an inhibition at 100 µM of 63%. In data set [1] (triolein 67 μM), this compound displayed an inhibition at 100 µM of 56%. In addition, in data set [1] (triolein 100 μM), 100 µM produced 51% inhibition. In addition, the inhibition at 100 µM in data set [1] (triolein 201 μM) was determined as 41%. In data set [1] (triolein 400 μM), testing at 100 µM gave an inhibition of 38%. Further, the inhibition at 100 µM in data set [1] (triolein 601 μM) is 30%. Further, in data set [1] (triolein 800 μM), the inhibition at 100 µM came to 18%. The compound further registered an inhibition at 100 µM in data set [1] (triolein 1000 μM) of 15%. The “inhibition of hepatic lipase (in words)” value at hepatic lipase is on record as “failed to significantly inhibit”. In addition, the “Pur. Hepatic Lipase + test compound (enzyme activity)” value (from here on “Pur. Hepatic Lipase + test compound”) on hepatic lipase (triolein substrate 30 μM) came out at 0.08. The “Pur. Hepatic Lipase + test compound” value on hepatic lipase (triolein substrate 67 μM) was 0.37. Moreover, on hepatic lipase (triolein substrate 100 μM), the “Pur. Hepatic Lipase + test compound” value stood at 0.69. In addition, on hepatic lipase (triolein substrate 201 μM), the “Pur. Hepatic Lipase + test compound” value is on record as 6.36. Also, at hepatic lipase (triolein substrate 400 μM), the “Pur. Hepatic Lipase + test compound” value is reported as 30.80. Besides, on hepatic lipase (triolein substrate 1000 μM), the “Pur. Hepatic Lipase + test compound” value turned out to be 151.60.
